Experimental data as given in patent US6890537B2, “Antimicrobial theta defensins and methods of using same” (The Regents of the University of California, priority 1999, dated 2005).
Positions of bridges follow the written chain, without caps; N, C: chain ends. Residues, ends and D or L forms follow the SMILES beside them.

What was measured:
Escherichia coli ML35 = assay: Agar diffusion assay; assay type: cell-based
Method: (§1) The purified chromatographic peaks were screened for antibacterial activity against Escherichia coli ML35 and Staphylococcus aureus 502a. Briefly, antibacterial activity was screened with an agar diffusion assay using lyophilized samples of HPLC fractions dissolved in 5 μl of 0.01% acetic acid as described by Lehrer et al., J. Immunol. Methods 137:167-173 (1991)).
(§2) Agar diffusion assays and microbicidal suspension assays were used to examine the activity of theta defensin against Staphylococcus aureus 502A, Escherichia coli ML35, Listeria monocytogenes, and Cryptococcus neoformans.

[1] = tested on: Staphylococcus aureus 502a; assay: Agar diffusion assay; assay type: cell-based
Method: as §1, §2

[2] = tested on: Cryptococcus neoformans 271A; assay: Agar diffusion assay; assay type: cell-based; details: 10, 30, 100 or 300 μg/ml; agar seeded with 1×10^6 colony forming units; FIG. 7
Text: as §2

[3] = tested on: Listeria monocytogenes EGD; assay: Agar diffusion assay; assay type: cell-based; details: 10, 30, 100 or 300 μg/ml; agar seeded with 1×10^6 colony forming units; FIG. 7
Text: as §2

[4] = tested on: Staphylococcus aureus 502a; assay: Microbicidal suspension assay (colony counts); assay type: cell-based
Method: S. aureus 502a was incubated with increasing concentrations of natural or synthetic theta defensin peptide. Killing was quantified by colony counts.
Killing was quantified by colony counts. […] The limit of detection (1 colony per plate) was equal to 1×10^3 colony forming units in the incubation mixture.
Killing activity was quantified by colony counts after 18 hrs.
Killing was quantified by colony counts.
(§3) Additional antimicrobial assays were conducted on other microbial organisms. […] In FIG. 9A, S. aureus 502a was incubated with increasing concentrations of natural or synthetic peptide for 30 min at 37° C. in 10 mM PIPES, pH 7.4, containing 5 mM glucose. Killing was quantified by colony counts. […] The limit of detection (1 colony per plate) was equal to 1×10^3 colony forming units in the incubation mixture.
It has been proposed that salt sensitivity of airway defensins underlies the susceptibility of cystic fibrosis patients to pulmonary infections.
(§4) An acyclic version of theta defensin was also tested for antimicrobial activity. […] Killing activity was quantified by colony counts after 18 hrs.

L. monocytogenes = assay: Microbicidal suspension assay (colony counts); assay type: cell-based, Listeria monocytogenes; details: 2 hr, 37° C., 10 mM PIPES, pH 7.4, 5 mM glucose; FIG. 9B
Method: (§5) Killing was quantified by colony counts. Panels B-D show incubation of the indicated organisms with RTD-1 peptide: Listeria monocytogenes and Staphylococcus aureus (Panel B); Salmonella typhimurium and Escherichia coli (Panel C); and Cryptococcus neoformans and Candida albicans (Panel D). The limit of detection (1 colony per plate) was equal to 1×10^3 colony forming units in the incubation mixture.
as §3

E. coli ML 35 = assay: Microbicidal suspension assay (colony counts); assay type: cell-based, Escherichia coli
Method: as §5, §3, §4

S. typhimurium = assay: Microbicidal suspension assay (colony counts); assay type: cell-based, Salmonella typhimurium; details: 2 hr, 37° C., 10 mM PIPES, pH 7.4, 5 mM glucose; FIG. 9C
Method: as §5, §3

C. albicans = assay: Microbicidal suspension assay (colony counts); assay type: cell-based, Candida albicans; details: 2 hr, 37° C., 10 mM PIPES, pH 7.4, 5 mM glucose; FIG. 9D
Method: as §5, §3

C. neoformans = assay: Microbicidal suspension assay (colony counts); assay type: cell-based, Cryptococcus neoformans; details: 2 hr, 37° C., 10 mM PIPES, pH 7.4, 5 mM glucose; FIG. 9D
Method: as §5, §3

[5] = 10, 30, 100 or 300 μg/ml, agar seeded with 1×10^6 colony forming units, FIG. 7
[6] = lyophilized HPLC fractions in 5 μl of 0.01% acetic acid, compared with other isolated leukocyte peptides

CC[C@H](C)[C@@H]1NC(=O)[C@@H]2CSSC[C@H](NC(=O)[C@H](CCCNC(=N)N)NC(=O)[C@@H]3CSSC[C@H](NC1=O)C(=O)N[C@@H]([C@@H](C)O)C(=O)N[C@@H](CCCNC(=N)N)C(=O)NCC(=O)N[C@@H](Cc1ccccc1)C(=O)N3)C(=O)N[C@@H](CC(C)C)C(=O)N[C@H]1CSSC[C@H](NC(=O)[C@H](C(C)C)NC(=O)CNC(=O)[C@H](CCCNC(=N)N)NC(=O)[C@H](CCCNC(=N)N)NC1=O)C(=O)N[C@@H](CCCNC(=N)N)C(=O)N2 [RTD-1] (cyclo(GFCRCLCRRGVCRCICTR); disulfide 3-16, 5-14, 7-12)
zone of inhibition (Escherichia coli ML35; [5]): dose dependent increase in the zone of inhibition
antibacterial activity (screen of purified chromatographic peaks) (Escherichia coli ML35; [6]): greatest activity of any of the peptides isolated
zone of inhibition [1, 5]: dose dependent increase in the zone of inhibition
antibacterial activity (screen of purified chromatographic peaks) [1, 6]: greatest activity of any of the peptides isolated
zone of inhibition [2]: dose dependent increase in the zone of inhibition
zone of inhibition [3]: dose dependent increase in the zone of inhibition
effect of NaCl on staphylocidal activity ([4]; 10 μg/ml peptide, 2 h incubation, NaCl concentrations as high as 150 mM, FIG. 9E): little effect
microbicidal activity ([4]; 37° C., 10 mM PIPES, pH 7.4, 5 mM glucose, FIG. 9): killed
peptide concentration reducing colony counts to below the level of detection ([4]; 2 h at 37° C. in 10 mM PIPES, pH 7.4, FIG. 8): ≥ 4 µg/mL
activity of cyclic form relative to acyclic form ([4]; gram positive bacteria (Staphylococcus)): about three times more active
microbicidal activity (L. monocytogenes): killed
microbicidal activity (E. coli ML 35; 2 hr, 37° C., 10 mM PIPES, pH 7.4, 5 mM glucose, FIG. 9C): killed
activity of cyclic form relative to acyclic form (E. coli ML 35; gram negative bacteria (E. coli)): about three times more active
microbicidal activity (S. typhimurium): killed
microbicidal activity (C. albicans): killed
microbicidal activity (C. neoformans): killed
